Measurements reported in publication doi:10.1101/2025.07.20.665728 (bioRxiv, 2025).

Key:
Assay type in all cases: cell-based
MAIT cells in human PBMC [1] = assay: Primary MAIT activation (CD69) in PBMCs; settings: 16 h, ligand alone
[2] = test system: SKW-3 cells expressing AF-7 (TRAV1-2/TRBV6-1) TCR; assay: MAIT cell activation assay, SKW-3 AF-7 TCR co-cultured with C1R.MR1; settings: SKW-3 AF-7, ligand alone
Protocol: (§1) Next, we explored whether RF catabolites could activate SKW-3 cells expressing two different MAIT TCRs. Distinct responses of T cells expressing TCRs with varying TRBV chain usage reinforces the role of Vβ in modulating MAIT responses to various ligands ([Chancellor et al., 2023]; [Gherardin et al., 2016]; [Seneviratna et al., 2022]).The surface expression of CD69 was measured as a marker for activation of cells expressing the AF-7 (TRAV1-2/TRBV6-1) or MBV28 (TRAV1-2/TRBV28) TCRs after co-culture with C1R.MR1 cells and the ligands.
(§2) C1R.MR1 cells (1 x 10^5) were initially stained with CTV for 15 minutes and then incubated with RF catabolites for 20 h. […] Cells were subsequently stained with PE-Cy7-conjugated anti-CD69 (BD; 1:100) and PE-labelled anti-MR1 (26.5 clone; BD; 1:100), before analysis on LSRFortessa (BD Biosciences) flow cytometer. Activation of SKW-3-MAIT cells was reflected by the cell-surface CD69 expression.

MAIT cells in human PBMC [3] = assay: MAIT cell proliferation in CTV-labeled PBMCs; settings: day 7, 5-OP-RU 10 μM, RF ligands 100 μM
[4] = test system: SKW-3 cells expressing MBV28 (TRAV1-2/TRBV28) TCR; assay: MAIT cell activation assay, SKW-3 MBV28 TCR co-cultured with C1R.MR1; settings: SKW-3 MBV28, ligand alone
Protocol: as §1, §2

C1R.MR1 cells [5] = assay: Endo H treatment and western blot of intracellular MR1; settings: C1R.MR1, 16 h; RF and catabolites 100 μM, Ac-6-FP 10 μM
Protocol: The downregulation of MR1 on the cell surface by the RF catabolites could be due to the depletion of the intracellular ER-resident MR1 pool, or by retention of MR1 in the ER, as shown for the DB28 ligand ([Salio et al., 2020]). To investigate this, C1R.MR1 cells were treated for 16 h with 100 μM of RF or RF catabolites, conditions which induce MR1 downregulation (Fig. 3A). Cells were lysed, and treated with endoglycosidase (Endo) H, to distinguish molecules that remain within the ER from those that have trafficked to the cell surface ([McWilliam et al., 2016]), then MR1 levels were assessed by immunoblotting (Fig. 3A).
Figure 3. […] S, Endo H–susceptible MR1; R, Endo H–resistant MR1. The Endo H–susceptible MR1 and Endo H–resistant MR1 fractions were quantified in at least two independent experiments. (b) Intracellular total MR1 level was also measured in C1R.MR1 cells by flow cytometry after treating the cells with the indicated ligands (100 μM) for 16h followed by permeabilization and staining with anti-MR1-PE (8F2.F9). Shown are the overlay histograms (top) and a bar chart depicting the geometric mean fluorescence intensity (gMFI) fold change of intracellular MR1 level (bottom) from three independent experiments performed in duplicates, with standard error (SEM) represented by the error bars. […]

C1R.MR1^R9H cells = assay: Cell surface MR1 R9H quantification, C1R.MR1^R9H
Description: We then tested the effect of the RF catabolites on the expression of two mutant versions of MR1 termed MR1^R9H ([Howson et al., 2020]) and MR1^K43A ([Reantragoon et al., 2013]). First, we tested the MR1^R9H mutant ([Howson et al., 2020]) which represents a rare, natural human polymorph. […] When C1R. […] Next, we tested sought to understand how the previously characterised Lys43A mutation affects ligand binding. […] While this is in line with the ability of these ligands to bind MR1, the reason for MR1^K43A cell surface accumulation is less clear. The most likely explanation is that these ligands bind ER-resident MR1^K43A, in line with our data using wild-type MR1; however, because the K43A mutation results in spontaneous MR1 surface egress, the presence of these stabilising ligands promotes enhanced trafficking and/or retention at the cell surface. We cannot rule out however that the ligands may also bind directly to surface MR1^K43A and slow down the recycling from cell surface.
The level of MR1 expressed on the cell surface was measured after the exposure to the investigated ligands as previously described ([Awad et al., 2020a]; [Wang et al., 2022a]). […] The PE fluorescence intensity reflects the surface MR1 level. The data was acquired with an LSRFortessa X-20 (BD Biosciences) and Diva software (BD Biosciences) and analyzed using FlowJo software (BD Biosciences).

C1R.MR1 cells [6] = assay: Intracellular total folded MR1 by flow cytometry (8F2.F9); settings: C1R.MR1, 100 μM, 16 h

Structure (SMILES) | CD69 expression on gated MAIT cells (MAIT cells in human PBMC [1]) | CD69 surface expression (activation) [2] | MAIT cell proliferation (MAIT cells in human PBMC [3]) | CD69 surface expression (activation) [4] | Endo H-resistant MR1 (C1R.MR1 cells [5]) | MR1^R9H surface level (C1R.MR1^R9H cells) | total level of folded MR1 (intracellular staining with 8F2.F9) (C1R.MR1 cells [6])
CC(=O)C=Nc1c(NC[C@H](O)[C@H](O)[C@H](O)CO)[nH]c(=O)[nH]c1=O [5-OP-RU, 5-(2-oxopropylideneamino)-6-D-ribitylaminouracil, reference compound] | induced robust CD69 upregulation | induced strong activation | significantly proliferated | induced strong activation | – | – | –
CC(=O)Nc1nc2ncc(C=O)nc2c(=O)[nH]1 [Ac-6-FP, acetyl-6-FP, reference compound] | – | – | – | – | increase in MR1 of a higher molecular weight | significantly increased | significantly increased
Nc1nc2ncc(C=O)nc2c(=O)[nH]1 [6-FP, 6-formylpterin, reference compound] | – | moderately reduced basal CD69 levels | – | moderately reduced basal CD69 levels | – | – | –
